One data set relates to B16 melanoma 4A5 cells. Put plainly: Melanin production inhibitory effect (theophylline-induced melanin production). The format is cell-based, mouse. Particulars: melanin production inhibition rate, sample at a concentration of 10 mM or less, 3 days culture, theophylline 1 mmol/L, N=4. A digest of the protocol: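 Mouse B16 4A5 cells cultured 24 h in D-MEM/10% FBS, then 3 days with 1 mmol/L theophylline (final) plus sample at 10 mM or less. Melanin measured by alkali solubilization (1 mol/L NaOH, 60° C, 30 min, A405) against synthetic melanin standard, normalized to BCA protein. Inhibition rate relative to normal and control groups, scored as graded ranges; N=4.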

Data set [1] relates to Normal human epidermal keratinocytes. Put plainly: Antioxidant test (ROS production after H2O2 treatment, DCFHDA probe). It counts as cell-based. Particulars: sample at a concentration of 10 mM or less, 24 h culture, 0.2 mM H2O2 for 2 hours, ROS per unit protein, N=4. As to the method: Normal human epidermal keratinocytes were seeded in a 96-well plate using KG2 medium to a cell density of 2.0×10^4 cells/well. After 24 hours of pre-incubation, samples adjusted to a predetermined concentration with KG2 medium were added to each well. After 24 hours of culture and removal of the medium, the wells were washed with HBSS(−) and the ROS-reactive fluorescent probe DCFHDA was allowed to incorporate for 30 minutes. The wells were washed again with HBSS(—), treated with 0.2 mM H2O2, and cultured for 2 hours. The fluorescence intensity was measured, and the amount of ROS produced per unit protein was calculated by dividing the fluorescence intensity by the amount of protein quantified by the BCA method.
The antioxidant effect when the sample was measured at a concentration of 10 mM or less was expressed as follows. The measurement was performed with N=4. • <20%: ± • 20-40%: + • 40-70%: ++ • 70-100%: +++

Data set [2] concerns Normal human dermal fibroblasts. In words: Collagen production promoting effect (ELISA of supernatant). It counts as cell-based. Particulars: amount of collagen produced, % with control group taken as 100%; sample at 10 mmol/L or less, 48 hours, N=3. A digest of the protocol:
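Fibroblasts in D-MEM with 5% FBS were pre-incubated 24 h, then exposed to samples for 48 h. Free collagen in supernatant quantified by ELISA (N=3), expressed as % of control (control = 100%) at ≤10 mmol/L, scored ± (<100%), + (100-120%), ++ (120%).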
Background: ELISA stands for enzyme-linked immunosorbent assay.

For data set [3], the system named is Normal human dermal fibroblasts (NHDF). In words: Hyaluronic acid production promoting effect (ELISA of supernatant). The following applies: amount of hyaluronic acid produced, % with control group taken as 100%; sample at 10 mmol/L or less, 48 hours, N=3. It counts as cell-based. A digest of the protocol:
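NHDF pre-incubated 24 h, then exposed to samples at 10 mmol/L or less in serum-free D-MEM for 48 h. Supernatant hyaluronic acid quantified by ELISA, N=3, expressed as % of control (100%) and scored ± (<100%), + (100-120%), ++ (120-150%), +++ (150%).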

The nature of data set [4]: Stability test (residual rate by HPLC, odor, coloring). The format is physicochemical. Particulars: 1% aqueous solution; for Coloring / Odor: total score of 10 panelists. A digest of the protocol:
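A 1% aqueous solution of each test sample was brought to pH 6 with dilute potassium hydroxide aqueous solution, sealed in a 50 mL screw tube, and stored. Residual rate was calculated from HPLC peak area on a Shimadzu liquid chromatograph. Ten panelists scored odor and coloring on a 1–3 scale each, and the summed scores were classified.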

Setting [5] is: pH 6, stored at 50° C., four weeks later.
[6] abbreviates: pH 6, stored at 50° C., two weeks later.

Consider `O=C1O[C@H]([C@@H](O)CO)C(O)=C1OCC(O)CO` (stereo partly drawn) [2-O-glyceryl ascorbic acid, reference compound], for which the “Melanin production inhibition effect” value with B16 melanoma 4A5 cells is reported as “+ (20-40%: +)”. For the same compound, in data set [1], the “Antioxidant Effects” value is on record as “± (<20%: ±)”. Besides, the “Collagen production promoting effect” value in data set [2] is listed as “+ (100-120%: +)”. Also, in data set [3], the “Hyaluronic acid production promoting effect” value was “+ (100-120%: +)”.
With `O=C1O[C@H]([C@@H](O)CO)C(OCC(O)CO)=C1O` (stereo partly drawn) [3-O-glyceryl ascorbic acid, reference compound], the “Melanin production inhibition effect” value with B16 melanoma 4A5 cells is on record as “+ (20-40%: +)”. Also, in data set [4] (pH 6, 50° C., initial), the Residual rate result is listed as “⊚ (⊚: 90% or more)”, the Coloring result is reported as “◯ (◯: Total score of 10 panelists is 25 or more)” and the Odor result is listed as “◯ (◯: Total score of 10 panelists is 20-24)”. In data set [4] (setting [5]), the Residual rate result is given as “Δ (Δ: 60% or more, less than 80%)”; the Coloring result was “Δ (Δ: Total score of 10 panelists is 16-24)”; the Odor entry is “Δ (Δ: Total score of 10 panelists is 16-19)”. In data set [4] (setting [6]), the Residual rate entry is given as “◯ (◯: 80% or more, less than 90%)”; the Coloring entry was “Δ (Δ: Total score of 10 panelists is 16-24)”; the Odor entry is “Δ (Δ: Total score of 10 panelists is 16-19)”. Moreover, the “Antioxidant Effects” value in data set [1] was “+ (20-40%: +)”. Besides, the “Collagen production promoting effect” value in data set [2] is “+ (100-120%: +)”. The “Hyaluronic acid production promoting effect” value in data set [3] is “+ (100-120%: +)”.
On to `CCOC1=C(OCC(C)(C)O)C(=O)O[C@@H]1[C@@H](O)CO` [Synthesis Example 3, 2-O-(2-hydroxyisobutyl)-3-O-ethylascorbic acid], for which the “Melanin production inhibition effect” value in the data set on B16 melanoma 4A5 cells is recorded as “+++ (60-100%: +++)”. Further, the “Antioxidant Effects” value in data set [1] is “++ (40-70%: ++)”. Also, the “Collagen production promoting effect” value in data set [2] is given as “++ (120%: ++)”.
For `CCOC1=C(OCC(C)(C)O)[C@@H]([C@@H](O)CO)OC1=O` [Synthesis Example 18, 2-O-ethyl-3-O-(2-hydroxyisobutyl) ascorbic acid], in the data set with B16 melanoma 4A5 cells, the “Melanin production inhibition effect” value is reported as “+++ (60-100%: +++)”. Further, the “Antioxidant Effects” value in data set [1] is “++ (40-70%: ++)”. Moreover, the “Collagen production promoting effect” value in data set [2] is recorded as “++ (120%: ++)”. In addition, the “Hyaluronic acid production promoting effect” value in data set [3] is “++ (120-150%: ++)”.
As to `CC(O)COC1=C(OCC(C)(C)O)[C@@H]([C@@H](O)CO)OC1=O` (stereo partly drawn) [Synthesis Example 39, 3-O-(2-hydroxyisobutyl)-2-O-(2-hydroxypropyl) ascorbic acid], the “Melanin production inhibition effect” value in the data set on B16 melanoma 4A5 cells is reported as “+++ (60-100%: +++)”. Besides, in data set [4] (pH 6, 50° C., initial), the Residual rate entry is listed as “⊚ (⊚: 90% or more)”, the Coloring entry is “⊚” and the Odor result is “⊚ (⊚: Total score of 10 panelists is 25 or more)”. In data set [4] (setting [5]), the Residual rate result is “⊚ (⊚: 90% or more)”, the Coloring result is given as “◯ (◯: Total score of 10 panelists is 25 or more)” and the Odor entry is “◯ (◯: Total score of 10 panelists is 20-24)”. Further, in data set [4] (setting [6]), the Residual rate result was “⊚ (⊚: 90% or more)”, the Coloring result is “◯ (◯: Total score of 10 panelists is 25 or more)” and the Odor result was “◯ (◯: Total score of 10 panelists is 20-24)”. The “Collagen production promoting effect” value in data set [2] was “+ (100-120%: +)”. The “Hyaluronic acid production promoting effect” value in data set [3] is reported as “+++ (150%: +++)”.
With `CCC(O)COC1=C(OCC(C)(C)O)[C@@H]([C@@H](O)CO)OC1=O` (stereo partly drawn) [Synthesis Example 40, 3-O-(2-hydroxyisobutyl)-2-O-(2-hydroxybutyl) ascorbic acid], the “Melanin production inhibition effect” value with B16 melanoma 4A5 cells was “++ (40-60%: ++)”. In data set [4] (pH 6, 50° C., initial), the Residual rate entry is recorded as “⊚ (⊚: 90% or more)”, the Coloring entry is “◯ (◯: Total score of 10 panelists is 25 or more)” and the Odor entry is “◯ (◯: Total score of 10 panelists is 20-24)”. In data set [4] (setting [5]), the Residual rate entry was “⊚ (⊚: 90% or more)”, the Coloring result was “◯ (◯: Total score of 10 panelists is 25 or more)” and the Odor result is listed as “◯ (◯: Total score of 10 panelists is 20-24)”. Also, in data set [4] (setting [6]), the Residual rate entry is listed as “⊚ (⊚: 90% or more)”, the Coloring result is reported as “◯ (◯: Total score of 10 panelists is 25 or more)” and the Odor result is “◯ (◯: Total score of 10 panelists is 20-24)”. Moreover, in data set [2], the “Collagen production promoting effect” value was “++ (120%: ++)”. Also, in data set [3], the “Hyaluronic acid production promoting effect” value is listed as “++ (120-150%: ++)”.
As to `CCCCCCCCC(O)COC1=C(OCC(C)(C)O)[C@@H]([C@@H](O)CO)OC1=O` (stereo partly drawn) [Synthesis Example 41, 3-O-(2-hydroxyisobutyl)-2-O-(2-hydroxydecyl) ascorbic acid], the “Melanin production inhibition effect” value in the data set on B16 melanoma 4A5 cells is listed as “++ (40-60%: ++)”. Besides, in data set [4] (pH 6, 50° C., initial), the Residual rate entry is listed as “⊚ (⊚: 90% or more)”, the Coloring entry is “◯ (◯: Total score of 10 panelists is 25 or more)” and the Odor result is given as “◯ (◯: Total score of 10 panelists is 20-24)”. Further, in data set [4] (setting [5]), the Residual rate result is listed as “⊚ (⊚: 90% or more)”, the Coloring entry was “◯ (◯: Total score of 10 panelists is 25 or more)” and the Odor entry is on record as “◯ (◯: Total score of 10 panelists is 20-24)”. In data set [4] (setting [6]), the Residual rate result is “⊚ (⊚: 90% or more)”, the Coloring result is “◯ (◯: Total score of 10 panelists is 25 or more)” and the Odor entry was “◯ (◯: Total score of 10 panelists is 20-24)”. Besides, the “Collagen production promoting effect” value in data set [2] is reported as “+ (100-120%: +)”. Moreover, in data set [3], the “Hyaluronic acid production promoting effect” value was “++ (120-150%: ++)”.
On to `CCCCCCCCCCCCCCC(O)COC1=C(OCC(C)(C)O)[C@@H]([C@@H](O)CO)OC1=O` (stereo partly drawn) [Synthesis Example 42, 3-O-(2-hydroxyisobutyl)-2-O-(2-hydroxyhexadecyl) ascorbic acid], for which the “Melanin production inhibition effect” value in the data set on B16 melanoma 4A5 cells is on record as “++ (40-60%: ++)”. Moreover, in data set [4] (pH 6, 50° C., initial), the Residual rate result is reported as “⊚ (⊚: 90% or more)”, the Coloring result was “◯ (◯: Total score of 10 panelists is 25 or more)” and the Odor result is given as “◯ (◯: Total score of 10 panelists is 20-24)”. In data set [4] (setting [5]), the Residual rate result is “⊚ (⊚: 90% or more)”, the Coloring result is given as “◯ (◯: Total score of 10 panelists is 25 or more)” and the Odor result is “◯ (◯: Total score of 10 panelists is 20-24)”. Besides, in data set [4] (setting [6]), the Residual rate result is on record as “⊚ (⊚: 90% or more)”, the Coloring result was “◯ (◯: Total score of 10 panelists is 25 or more)” and the Odor entry was “◯ (◯: Total score of 10 panelists is 20-24)”. The “Collagen production promoting effect” value in data set [2] is listed as “+ (100-120%: +)”. Moreover, the “Hyaluronic acid production promoting effect” value in data set [3] was “+++ (150%: +++)”.
Turning to `CC(C)(O)COC1=C(OCC(O)c2ccccc2)C(=O)OC1C(O)CO` (stereo not drawn) [Synthesis Example 43, 3-O-(2-hydroxyisobutyl)-2-O-(2-hydroxyethylbenzene) ascorbic acid], the “Melanin production inhibition effect” value in the data set on B16 melanoma 4A5 cells is given as “++ (40-60%: ++)”. In addition, in data set [4] (pH 6, 50° C., initial), the Residual rate result is given as “⊚ (⊚: 90% or more)”, the Coloring result was “◯ (◯: Total score of 10 panelists is 25 or more)” and the Odor result is “◯ (◯: Total score of 10 panelists is 20-24)”. Besides, in data set [4] (setting [5]), the Residual rate result was “⊚ (⊚: 90% or more)”, the Coloring result was “◯ (◯: Total score of 10 panelists is 25 or more)” and the Odor entry is recorded as “◯ (◯: Total score of 10 panelists is 20-24)”. Besides, in data set [4] (setting [6]), the Residual rate result is “⊚ (⊚: 90% or more)”, the Coloring entry was “◯ (◯: Total score of 10 panelists is 25 or more)” and the Odor result is on record as “◯ (◯: Total score of 10 panelists is 20-24)”. Further, the “Collagen production promoting effect” value in data set [2] was “++ (120%: ++)”. Further, the “Hyaluronic acid production promoting effect” value in data set [3] is “++ (120-150%: ++)”.

(Values after patent US20260001853A1, “ASCORBIC ACID DERIVATIVE OR SALT THEREOF, AND COSMETIC THEREOF” (SEIWA KASEI COMPANY, LIMITED, priority 2022, published 2026).)
